The nature of series [1]: Cytotoxicity against C8166 cells after 72 hrs by MTT method. It is filed as cell-based. Conditions: human.
The subject of series [2] is Human immunodeficiency virus 1. The experiment in a line: Antiviral activity against HIV1 3B in C8166 cells. It is filed as functional, organism-based. Conditions: Human immunodeficiency virus 1, 3B.

Each structure is given as a SMILES string. ≈ marks a conversion by molar mass, not a printed value.

Compound `COC(=O)C[C@H]1OC(C)(C)[C@@H]2C[C@H]3O[C@@]12C[C@]12CC[C@]4(C)C(=O)[C@@H](C)[C@@H]5[C@H]6OC(=O)[C@@H](C)[C@H]6O[C@@](O1)(C(=O)[C@H]32)[C@@H]54` [RUBRIFLORIN A] yielded a cytotoxic concentration (CC50) at 72 h in series [1] of 89.1 µg/mL (≈ 159 µM). In series [2], the EC50 worked out at 10 µg/mL (≈ 17.9 µM).

The compound `COC(=O)C[C@H]1OC(C)(C)C2=C1C[C@]13CC[C@]4(C)C(=O)[C@@H](C)[C@@H]5[C@H]6OC(=O)[C@@H](C)[C@H]6O[C@@](O1)(C(=O)C3=CC2=O)[C@@H]54` [RUBRIFLORIN B] came in with a CC50 at 72 h in series [1] of 100 µg/mL (≈ 181 µM). The concentration for a half-maximal effect (EC50) in series [2] amounted to 16.2 µg/mL (≈ 29.2 µM).

With `CCOC(=O)C[C@H]1OC(C)(C)C2=C1C[C@]13CC[C@]4(C)C(=O)[C@@H](C)[C@@H]5[C@H]6OC(=O)[C@@H](C)[C@H]6O[C@@](O1)(C(=O)C3=CC2=O)[C@@H]54` [RUBRIFLORIN C], the half-maximal cytotoxic concentration (CC50) at 72 h in series [1] was > 200 µg/mL. For the same compound, the EC50 in series [2] is 81.3 µg/mL (≈ 143 µM).

`Cc1cn([C@H]2C[C@H](N=[N+]=[N-])[C@@H](CO)O2)c(=O)[nH]c1=O` [ZIDOVUDINE]: the CC50 at 72 h in series [1] is > 200 µg/mL. The compound also displayed an EC50 in series [2] of 0.0043 µg/mL (≈ 0.0161 µM).

Source of the values: ChEMBL document CHEMBL1143675, “Triterpenoids from Schisandra rubriflora” (J Nat Prod, 2007).
